This data set in a line: Acid dissociation constants pKa of acid generated from compound (I), by computation (ACD/Labs software package 1; Gaussian 16 DFT if not computable). The note with it: Table 1; values equal the difference between maximum and minimum pKa of the generated acid groups. The text has this:
In the present specification, the acid dissociation constant (pKa) is the pKa in an aqueous solution and is specifically a value determined by computation using the following software package 1 based on a Hammett substituent constant and a database of known literature values.
All pKa values in the present specification are values determined by computation using this software package.
Software package 1: Advanced Chemistry Development (ACD/Labs) Software V 8.14 for Solaris (1994-2007 ACD/Labs).
In the present specification, the pKa is a value determined by computation using the software package 1 based on the Hammett substituent constant and the database of known literature values as described above. When the pKa cannot be computed using this method, a value obtained using Gaussian 16 based on the DFT (density functional theory) is used.
The pKa values of the at least two acid groups generated from the compound (I) upon irradiation with actinic rays or radiation are determined using the following method.
(1) Suppose that all the acid anionic groups included in the compound (I) are replaced with their corresponding acid groups to generate an acid group-containing compound (PIA). In this case, there are two cases depending on the structure of the compound (I). In one case (case A), the acid group-containing compound (PIA) generated is a single compound (single molecule) having a plurality of acid groups. In the other case (case B), a plurality of compounds (plurality of molecules) each having at least one acid group are formed.
(2) The case A (its one specific example is mode 1 described below) will be described. A compound in which, among the plurality of acid groups included in the acid group-containing compound (PIA), an acid group having the smallest acid dissociation constant is reconverted to the corresponding acid anionic group is defined as an acid group-containing compound (PIA-1). The pKa when the acid group-containing compound (PIA) is converted to the acid group-containing compound (PIA-1) is determined and used as the pKa of the acid group reconverted to the acid anionic group. Next, a compound in which, among one or the plurality of acid groups included in the acid group-containing compound (PIA-1), an acid group having the smallest acid dissociation constant (when only one acid group is present, this acid group is used) is reconverted to the corresponding acid anionic group is defined as an acid group-containing compound (PIA-2). The pKa when the acid group-containing compound (PIA-1) is converted to the acid group-containing compound (PIA-2) is determined and used as the pKa of the acid group reconverted to the acid anionic group. This procedure is repeated until the resulting compound has no acid group, and the pKa values of the plurality of acid groups included in the acid group-containing compound (PIA) are thereby determined.
In the above method, when the number of acid groups having the smallest acid dissociation constant among the plurality of acid groups is two or more, one of these acid groups is arbitrarily selected, and the pKa when the compound is converted to a compound (PIA #) obtained by reconverting the selected acid group to its corresponding acid anionic group is determined. As for the pKa value of each of the remaining (unselected) acid groups, the pKa when the compound (PIA #) is converted to a “compound (PIA ##) obtained by reconverting an acid group newly selected from the remaining acid groups to its corresponding acid anionic group” is determined and used.
For a compound having one acid group, the pKa when the acid group in this compound is reconverted to the corresponding acid anionic group is used as the pKa of the acid group. When the compound having at least one acid group is a compound having a plurality of acid groups, the pKa of each acid group is determined using the method described in (2) above. […]
As usually defined, the pKa is the pH at which an ionisable group is half protonated. For the molecule `O=C(NC(C(F)(F)F)C(F)(F)S(=O)(=O)[O-])c1ccc([S+](c2ccccc2)c2ccccc2S(=O)(=O)O)cc1` (stereo not shown) [Compound X-3], the pKa worked out at 1.24.
`COc1ccc([I+]c2cccc(C(=O)NS(=O)(=O)C(F)(F)C(F)(F)C(F)(F)S(=O)(=O)[N-]S(=O)(=O)C(F)(F)F)c2)cc1` [Compound X-11] showed a pKa of 10.26.
The figure for `O=C(NC(=O)C(F)(F)S(=O)(=O)[O-])c1ccc([S+](c2ccccc2)c2ccccc2)cc1` [Compound X-1] is 9.96; for `O=C([N-]S(=O)(=O)C(F)(F)C(F)(F)C(F)(F)S(=O)(=O)[N-]C(=O)c1ccccc1[S+](c1ccccc1)c1ccccc1)c1ccccc1[I+]c1ccccc1` [Compound X-9] it is 0.89.
The figure for `O=S(=O)(O)c1ccc([S+](c2ccccc2)c2ccc(OCC(F)(F)S(=O)(=O)[O-])cc2)cc1` (stereo not shown) [Compound X-6] is 0.77.
Molecule `Cc1ccc([I+]c2ccc(C(=O)NS(=O)(=O)C(F)(F)C(F)(F)C(F)(F)S(=O)(=O)[N-]S(=O)(=O)C(F)(F)F)cc2)cc1` [Compound X-12] gave a pKa of 5.67.
In turn, `O=C([N-]C(=O)c1ccccc1[I+]c1ccccc1)c1ccc([I+]c2ccc(OS(=O)(=O)C(F)(F)C(F)(F)C(F)(F)S(=O)(=O)[O-])cc2)cc1` [Compound X-16] showed a pKa of 12.11.
